Test results: ChEMBL document CHEMBL3797079, “Synergistic reduction of HIV-1 infectivity by 5-azacytidine and inhibitors of ribonucleotide reductase” (Bioorg Med Chem, 2016)
Active and inactive are the calls of the source. The rule behind the calls is not given here.

Legend:
[1] = target: Human immunodeficiency virus type 1 reverse transcriptase (Human immunodeficiency virus 1) (UniProt Q72547); assay: Inhibition of HIV-1 reverse transcriptase assessed as inhibition of primer extension using 5' 32P-end-labeled 17-mer DNA/40-mer RNA as primer/template up to 1 mM measured after 5 mins by PAGE analysis
[2] = tested on: Human immunodeficiency virus 1; assay: Antiviral activity against VSV-G pseudotyped HIV-1 NL4-3 infected in human U373-MAGI cells assessed as reduction in U5-gag level at 50 or 100 nM measured at 72 hrs post infection by qPCR method; type: functional, organism-based
[3] = tested on: Human immunodeficiency virus 1; assay: Antiviral activity against VSV-G pseudotyped HIV-1 NL4-3 infected in human U373-MAGI cells assessed as reduction in gag level at 5 to 200 nM measured at 6 to 12 hrs post infection by qPCR method; type: functional, organism-based
[4] = tested on: Human immunodeficiency virus 1; assay: Antiviral activity against VSV-G pseudotyped HIV-1 NL4-3 infected in human U373-MAGI cells assessed as reduction in gag level at 50 or 100 nM measured at 72 hrs post infection by qPCR method; type: functional, organism-based
[5] = tested on: Human immunodeficiency virus 1; assay: Antiviral activity against VSV-G pseudotyped HIV-1 NL4-3 infected in human U373-MAGI cells assessed as reduction in U5-gag level at 5 to 200 nM measured at 6 to 12 hrs post infection by qPCR method; type: functional, organism-based

Row | SMILES | inhibition [1] | Activity [2] | Activity [3] | Activity [4] | Activity [5]
1 | Nc1ncn([C@@H]2O[C@H](COP(=O)(O)OP(=O)(O)OP(=O)(O)O)[C@@H](O)[C@H]2O)c(=O)n1 | inactive | – | – | – | –
2 | Cc1nnc(C(=O)NC(C)(C)c2nc(C(=O)NCc3ccc(F)cc3)c(O)c(=O)n2C)o1 | – | Active | inactive | Active | inactive
3 | Nc1ncn([C@H]2C[C@H](O)[C@@H](COP(=O)(O)OP(=O)(O)OP(=O)(O)O)O2)c(=O)n1 | inactive | – | – | – | –
